Our source for the outcome values is PubChem BioAssay AID1314 (NMMLSC, 2008).

Activity calls are given as the source filed them.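 Rule for the calls: active = compounds raising the area under the GFP-over-time curve by more than 15% versus untreated cells, meaning slower Sic1 breakdown; inactive = the rest.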 Residues, ends and D or L forms follow the SMILES beside them. *: point of attachment. Cbz = O=C(OCc1ccccc1)*

The test deals with S. cerevisiae Cln2-overexpressing, Sic1-GFP degradation, flow cytometry. Put plainly: Sic1-GFP degradation in Cln2-overexpressing yeast, mechanism study for 26S proteasome disassembly project, secondary assay, flow cytometry, S. cerevisiae (AID 1314).

Turning to `CC(=O)N1C(=O)C(=C2C=C(C)OC(C)=C2)c2ccccc21`, the outcome was “active; degradation inhibitor”.
In the case of `CC(C)C[C@@H](C=O)NC(=O)[C@H](CC(C)C)NC(=O)[C@H](CC(C)C)NC(=O)OCc1ccccc1` (Cbz-Leu-Leu-Leu-aldehyde), the outcome was “active; degradation inhibitor”.
